Article PMC6213020, “Identification of a Novel PPAR-γ Agonist through a Scaffold Tuning Approach” (International Journal of Molecular Sciences, 2018)
Like-named read-outs stand apart in the source and are kept apart here.

What was measured:
[1] = biological target: T1, PPAR-γ (Homo sapiens, UniProt P37231); assay: cell-based PPAR transactivation (luciferase) assay, PPAR-γ; settings: for activation at 10 µM: 24 h, compounds 10 µM, relative to maximum activation with pioglitazone (10 µM), PPAR-Luc in CV-1 cells, read-out: % max PPAR-γ
T1 construct: host or cells: CV-1
T1 sequence (P37231 1-505): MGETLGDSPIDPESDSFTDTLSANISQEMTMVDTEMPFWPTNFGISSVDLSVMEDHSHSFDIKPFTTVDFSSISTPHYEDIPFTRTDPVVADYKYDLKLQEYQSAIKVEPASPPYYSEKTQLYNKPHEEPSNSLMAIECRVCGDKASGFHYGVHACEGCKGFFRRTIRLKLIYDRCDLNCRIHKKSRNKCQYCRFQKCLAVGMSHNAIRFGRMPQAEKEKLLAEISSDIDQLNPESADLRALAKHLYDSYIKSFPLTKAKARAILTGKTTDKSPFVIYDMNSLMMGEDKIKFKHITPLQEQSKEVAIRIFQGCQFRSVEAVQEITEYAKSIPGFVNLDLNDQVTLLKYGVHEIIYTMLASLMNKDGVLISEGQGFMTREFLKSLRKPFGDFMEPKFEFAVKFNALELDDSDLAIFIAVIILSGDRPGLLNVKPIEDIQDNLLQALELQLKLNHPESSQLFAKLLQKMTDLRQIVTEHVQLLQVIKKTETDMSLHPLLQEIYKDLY
Experimental: (§1) The PPAR activities of the synthesized dichloroanilide-linked indole analogs were assessed using a standard cell-based transactivation assay in CV-1 cells. GW7647 [42], pioglitazone, and GW0742 [43] were used as positive controls for PPAR-α, -γ, and -δ, respectively. These three positive controls presented the maximum activation for each PPAR subtype. The activity of the compounds was presented as the activation percentage (%) relative to the maximum values of the positive controls at the indicated concentrations.
(§2) Transient transfection and luciferase assay was carried out. CV-1 cells were seeded in 48-well plates at a density of 1.5 × 10^5 cells/well in Dulbecco’s modified Eagle’s medium (DMEM) with containing 10% fetal bovine serum (FBS). The cells were transiently transfected with plasmid mixtures containing PPAR-α/γ expression vector and tk-PPRE-luciferase (Luc) vector for 6 h and then treated with the samples for 24 h. HEK293t cells were seeded in a 60-mm dish at a density of 1.5 × 10^6 cells/dish. After transfection with the plasmid mixtures containing PPAR-δ expression vector and Luc vector for 6 h, the cells were transferred to a 96-well plate and treated with the samples. To normalize the transfection efficiency, a β-galactosidase plasmid was cotransfected. The luciferase activity in the cell lysates was measured using a luciferase assay system (Promega Corp., Madison, WI, USA), and the β-galactosidase activity was determined by measuring the absorbance at 410 nm using an ELISA plate reader. The data were expressed as the relative luciferase activity divided by the β-galactosidase activity. All constructs were kindly gifted by Dr. Ronald M. Evans at The Salk Institute (La Jolla, CA, USA).

[2] = biological target: T2, PPAR-δ (Homo sapiens, UniProt Q03181); assay: cell-based PPAR transactivation (luciferase) assay, PPAR-δ; settings: compounds 10 µM; relative to maximum activation with GW0742 (10 μM); PPAR-Luc in HEK293t cells; read-out: % max PPAR-δ
T2 construct: host or cells: HEK293t
T2 sequence (Q03181 1-441): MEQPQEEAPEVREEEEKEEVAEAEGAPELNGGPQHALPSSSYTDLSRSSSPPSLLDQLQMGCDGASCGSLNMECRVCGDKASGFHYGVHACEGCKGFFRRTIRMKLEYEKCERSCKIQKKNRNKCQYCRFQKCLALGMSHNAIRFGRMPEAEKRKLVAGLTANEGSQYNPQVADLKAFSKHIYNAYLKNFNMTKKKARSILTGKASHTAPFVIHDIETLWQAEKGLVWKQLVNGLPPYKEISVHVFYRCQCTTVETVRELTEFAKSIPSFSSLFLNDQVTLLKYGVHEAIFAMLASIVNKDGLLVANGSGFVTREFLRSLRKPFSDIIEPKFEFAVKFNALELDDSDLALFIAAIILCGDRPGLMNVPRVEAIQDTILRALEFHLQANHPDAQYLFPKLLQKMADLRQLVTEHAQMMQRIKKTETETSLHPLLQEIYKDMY
Experimental: as §1, §2

[3] = biological target: T3, PPAR-δ (Homo sapiens, UniProt Q03181); assay: TR-FRET LanthaScreen PPAR coactivator recruit assay, PPAR-δ (C33 peptide); format: biochemical
T3 construct: purchased Invitrogen / Thermo Fisher Scientific (assay service)
T3 sequence (Q03181 211-439 limits assumed): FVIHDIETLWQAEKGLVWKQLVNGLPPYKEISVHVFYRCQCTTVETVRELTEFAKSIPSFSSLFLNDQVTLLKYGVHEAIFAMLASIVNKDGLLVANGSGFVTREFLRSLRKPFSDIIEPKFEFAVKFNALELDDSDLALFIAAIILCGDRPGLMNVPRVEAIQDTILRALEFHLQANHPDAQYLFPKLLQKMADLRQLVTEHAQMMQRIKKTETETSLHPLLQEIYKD
Description: (§3) Binding of agonist to the PPAR LBD causes a conformational change around helix 12 in the LBD, resulting in higher affinity for the coactivator peptide. When the terbium label on the anti-GST antibody complexed with PPAR is excited at 340 nm, energy is transferred to the fluorescein label on the coactivator peptide and detected as emission at 520 nm. […] Based on the biology of the PPAR-coactivator peptide interaction, this ligand EC50 is a composite value representing the amount of ligand required to bind to receptor, effect a conformational change, and recruit coactivator peptide. Potency of compounds show similar order to their activity (Table 3). […] Ligands such as TZDs show little or no binding to PPAR-δ. Compound 11 and 15 have ortho or meta substituted benzoic acid as an acidic head group. Their acidic head groups might seem to be too large to fit within the narrow PPAR-δ pocket. In contrast, the compound 1 and 2 contains an acetic acid head group that complements the narrow PPAR-δ ligand binding. […] The potency and selectivity of compound 11 could be explained by harmonization of steric effect of acidic head group, length and rigidity of hydrophobic tail, and properly tuned aromatic linker system.
(§4) EC50 of compounds were determined by recruitment of transcriptional coactivators using the TR-FRET based Lanthascreen coactivator assays (Invitrogen, Carlsbad, CA, USA). Which was serviced by Thermo Fisher Scientific (Medicon, WI, USA) according to the LanthaScreen TR-FRET coregulator protocol and assay conditions. Coregulator peptide PGC1a, TRAP220/DRIP2 and C33 was used for the coactivator recruit assay of PPAR-α, -γ, and -δ, respectively.

[4] = biological target: T4, PPAR-γ (Homo sapiens, UniProt P37231); assay: TR-FRET LanthaScreen PPAR coactivator recruit assay, PPAR-γ (TRAP220/DRIP2 peptide); format: biochemical; settings: for EC50: TR-FRET coactivator recruit assay
T4 construct: purchased Invitrogen / Thermo Fisher Scientific (assay service)
T4 sequence (P37231 238-503 limits assumed): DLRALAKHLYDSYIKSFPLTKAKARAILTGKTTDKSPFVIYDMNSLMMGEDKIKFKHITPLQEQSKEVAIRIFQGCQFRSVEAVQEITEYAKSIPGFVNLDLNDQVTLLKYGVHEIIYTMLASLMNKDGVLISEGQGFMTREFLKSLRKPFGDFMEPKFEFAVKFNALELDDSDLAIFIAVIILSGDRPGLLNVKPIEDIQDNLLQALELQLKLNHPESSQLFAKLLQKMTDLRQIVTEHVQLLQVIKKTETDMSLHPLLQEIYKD
Description: as §3, §4

Row | activation at 10 µM [1] [%] | PPAR-γ activity relative to that of pioglitazone ([1]; cell-based reporter assay) | activation at 10 µM [2] [%] | EC50 [3] [nM] | EC50 ([4]; read-out: EC50 PPAR-γ) [nM] | selectivity for PPAR-γ to PPAR-α ([4]; from coactivator recruit EC50) | selectivity for PPAR-γ to PPAR-δ ([4]; from coactivator recruit EC50) | EC50 ([4]; read-out: EC50 to PPAR-γ) [nM] | SMILES
1 | 189.2 ± 1.67 | approximately 2 fold | 94.86 ± 0.2 | 32600 | 1.96 | 1,970 fold | 16,600 fold |  | O=C(COc1ccc2c(ccn2Cc2ccccc2C(=O)O)c1)Nc1ccc(Cl)cc1Cl [Compound 12, 2-((5-(2-((2,4-Dichlorophenyl)amino)-2-oxoethoxy)-1H-indol-1-yl)methyl)benzoic acid]
2 | 74.5 ± 0.94 |  | 86.7 ± 0.53 | > 100000 | 571 |  |  |  | O=C(COc1ccc2ccn(Cc3ccccc3C(=O)O)c2c1)Nc1ccc(Cl)cc1Cl [Compound 13, 2-((6-(2-((2,4-Dichlorophenyl)amino)-2-oxoethoxy)-1H-indol-1-yl)methyl)benzoic acid]
3 | 126.5 ± 0.92 |  | 86.09 ± 0.31 | > 100000 | 32.6 |  |  | 32.3 | O=C(COc1ccc2ccn(Cc3cccc(C(=O)O)c3)c2c1)Nc1ccc(Cl)cc1Cl [Compound 15, 3-((6-(2-((2,4-Dichlorophenyl)amino)-2-oxoethoxy)-1H-indol-1-yl)methyl)benzoic acid]
4 | 93.2 ± 0.59 |  | 75.88 ± 0.35 | 28100 | > 11100 |  |  |  | O=C(COc1ccc2c(c1)c(Cc1ccccc1)cn2Cc1ccccc1C(=O)O)Nc1ccc(Cl)cc1Cl [Compound 18, 2-((3-Benzyl-5-(2-((2,4-dichlorophenyl)amino)-2-oxoethoxy)-1H-indol-1-yl)methyl)benzoic acid]
